Test results: US11147272B2, “Pyridone compounds and agricultural and horticultural fungicides comprising the same as active ingredients” (MITSUI CHEMICALS AGRO, INC., priority 2017, dated 2021)

What was measured:
Phytophthora infestans = assay: whole plant or invertebrate; format: in vivo; conditions: for Test F control value class: class of control value
Alternaia brassicicola = assay: Test Example C: Alternaria sooty spot on cabbage; format: in vivo; conditions: for Test C control value class: class of control value
From the text: Seeds of a test plant (cabbage variety: Shikidori) were planted and cultivated until the cotyledons extended.
<Control Value> Control value=100{1−(n/3)}

Plasmopara viticola = assay: Test Example G: Downy mildew on vine; conditions: for Test G control value: 7 to 10 days after inoculation; for Test G control value class: Downy mildew on vine (Neomuscat), 2.5 ml/pot, assessed 7 to 10 days after inoculation
Experimental: Seeds of a test plant (grape variety: Neomuscat) were planted and cultivated until three to four first leaves appeared. In the test, the inventive compounds were dissolved into dimethyl sulfoxide-methanol mixture solution (volume ratio: 9/1), and the resultant solutions were diluted with well water to a concentration of 250 ppm to obtain the drug solutions. The drug solutions were sprayed to the test plant (2.5 ml/pot). After the drug solutions dried, a zoosporangia suspension (1-2×10^4 zoosporangia/ml) of Plasmopara viticola was inoculated to the plant by spraying. After the inoculation, the plant was kept in a mist chamber at room temperature of 20° C. for about 24 hours to promote the onset of disease. The degrees of disease development were investigated 7 to 10 days after the inoculation, and the effectiveness of the drug solutions was evaluated.
In Test Examples described above, the degrees of disease development were evaluated in increments of 0.05 from 0 (as no incidence of disease) to 3 (as the degree of disease development in an untreated plant group). Further, control values were calculated using the following equation based on the degree of disease development.
n=Degree of disease development in each treated group

[1] = tested on: Colletotrichum orbiculare; assay: Test Example H: Anthracnose on cucumber; conditions: for Test H control value: 6 to 10 days after inoculation; for Test H control value class: Anthracnose on cucumber (Sagami Hanjiro), 2.5 ml/pot, assessed 6 to 10 days after inoculation
[2] = tested on: Blumeria graminis f. sp. hordei; assay: Test Example D: Powdery mildew on barley; conditions: for Test D control value class: class of control value
Magnaporthe grisea = assay: whole plant or invertebrate; format: in vivo; conditions: for Test A control value class: class of control value
Botrytis cinerea = assay: Test Example B: Gray mold on tomato; conditions: for Test B control value class: class of control value
Puccinia recondita = assay: Test Example E: Brown rust on wheat; format: in vivo; conditions: for Test E control value class: class of control value
[3] = Late blight on tomato, control value class
[4] = Alternaria sooty spot on cabbage, control value class
[5] = Downy mildew on vine, 250 ppm spray
[6] = Anthracnose on cucumber, 250 ppm spray
[7] = Powdery mildew on barley, control value class
[8] = Blast on rice, control value class
[9] = Gray mold on tomato, control value class
[10] = Brown rust on wheat, control value class
[11] = Alternaria sooty spot on cabbage
[12] = 250 ppm drug solution sprayed on test plant
[13] = 250 ppm drug solution sprayed (2.5 ml/pot), grape Neomuscat
[14] = 250 ppm drug solution sprayed (2.5 ml/pot), cucumber Sagami Hanjiro

CCCCc1cc(Cl)c(=O)n(CC)c1-c1ccc(F)cc1Cl [compound 206]
Test F control value (Phytophthora infestans; [3]): H (more than 50% control value) | Test C control value (Alternaia brassicicola; [4]): H (more than 50% control value) | Test G control value (Plasmopara viticola; [5]): H (more than 50% control value) | Test H control value [1, 6]: H (more than 50% control value) | Test D control value [2, 7]: H (more than 50% control value) | Test A control value (Magnaporthe grisea; [8]): H (more than 50% control value) | Test B control value (Botrytis cinerea; [9]): H (more than 50% control value) | Test E control value (Puccinia recondita; [10]): H (more than 50% control value)

CCn1c(-c2c(F)cc(F)cc2F)c(C(=O)C2CC2)cc(Cl)c1=O [compound 260]
Test F control value (Phytophthora infestans; [3]): H (more than 50% control value) | Test C control value (Alternaia brassicicola; [4]): H (more than 50% control value) | Test G control value (Plasmopara viticola; [5]): L (50% or less control value) | Test H control value [1, 6]: H (more than 50% control value) | Test D control value [2, 7]: H (more than 50% control value) | Test A control value (Magnaporthe grisea; [8]): H (more than 50% control value) | Test B control value (Botrytis cinerea; [9]): H (more than 50% control value) | Test E control value (Puccinia recondita; [10]): H (more than 50% control value)

CCN(Cc1cc(Cl)c(=O)n(CC)c1-c1c(F)cc(OC)cc1F)OC [compound 152]
Test F control value class (Phytophthora infestans; Late blight on tomato): L (50% or less control value) | Test C control value class (Alternaia brassicicola; [11]): H (more than 50% control value) | Test G control value class (Plasmopara viticola; 250 ppm spray): H (more than 50% control value) | Test H control value class ([1]; 250 ppm spray): H (more than 50% control value) | Test D control value class ([2]; Powdery mildew on barley): H (more than 50% control value) | Test A control value class (Magnaporthe grisea; Blast on rice): H (more than 50% control value) | Test B control value class (Botrytis cinerea; Gray mold on tomato): H (more than 50% control value) | Test E control value class (Puccinia recondita; Brown rust on wheat): H (more than 50% control value)

CC(C)Cc1cc(Cl)c(=O)n(CC(F)F)c1-c1c(F)cc(F)cc1F [compound 304]
Test F control value (Phytophthora infestans; [3]): L (50% or less control value) | Test C control value (Alternaia brassicicola; [4]): H (more than 50% control value) | Test G control value (Plasmopara viticola; [5]): L (50% or less control value) | Test H control value [1, 6]: H (more than 50% control value) | Test D control value [2, 7]: H (more than 50% control value) | Test A control value (Magnaporthe grisea; [8]): H (more than 50% control value) | Test B control value (Botrytis cinerea; [9]): H (more than 50% control value) | Test E control value (Puccinia recondita; [10]): H (more than 50% control value)

CCc1ccc(=O)n(C)c1-c1ccc(OC)cc1C [compound 367]
Test F control value (Phytophthora infestans; [3]): L (50% or less control value) | Test C control value (Alternaia brassicicola; [4]): L (50% or less control value) | Test G control value (Plasmopara viticola; [5]): L (50% or less control value) | Test H control value [1, 6]: H (more than 50% control value) | Test D control value [2, 7]: H (more than 50% control value) | Test A control value (Magnaporthe grisea; [8]): L (50% or less control value) | Test B control value (Botrytis cinerea; [9]): L (50% or less control value) | Test E control value (Puccinia recondita; [10]): L (50% or less control value)

CCn1c(-c2ccc(OC)cc2)c(C(C)(OC)C(C)C)cc(Cl)c1=O (centres unmarked) [compound 224]
Test F control value (Phytophthora infestans; [3]): L (50% or less control value) | Test C control value (Alternaia brassicicola; [4]): L (50% or less control value) | Test G control value (Plasmopara viticola; [5]): L (50% or less control value) | Test H control value [1, 6]: L (50% or less control value) | Test D control value [2, 7]: L (50% or less control value) | Test A control value (Magnaporthe grisea; [8]): L (50% or less control value) | Test B control value (Botrytis cinerea; [9]): H (more than 50% control value) | Test E control value (Puccinia recondita; [10]): H (more than 50% control value)

CCn1c(-c2c(F)cc(F)cc2F)c(C(=O)CC(C)C)cc(Cl)c1=O [compound 160]
Test F control value class (Phytophthora infestans; Late blight on tomato): L (50% or less control value) | Test C control value class (Alternaia brassicicola; [11]): H (more than 50% control value) | Test G control value class (Plasmopara viticola; 250 ppm spray): H (more than 50% control value) | Test H control value class ([1]; 250 ppm spray): H (more than 50% control value) | Test D control value class ([2]; Powdery mildew on barley): H (more than 50% control value) | Test A control value class (Magnaporthe grisea; Blast on rice): L (50% or less control value) | Test B control value class (Botrytis cinerea; Gray mold on tomato): H (more than 50% control value) | Test E control value class (Puccinia recondita; Brown rust on wheat): H (more than 50% control value)

CCn1c(-c2ccc(F)cc2Cl)c(C2CCCC2)cc(Br)c1=O [compound 221]
Test F control value (Phytophthora infestans; [3]): L (50% or less control value) | Test C control value (Alternaia brassicicola; [4]): H (more than 50% control value) | Test G control value (Plasmopara viticola; [5]): L (50% or less control value) | Test H control value [1, 6]: L (50% or less control value) | Test D control value [2, 7]: H (more than 50% control value) | Test A control value (Magnaporthe grisea; [8]): H (more than 50% control value) | Test B control value (Botrytis cinerea; [9]): H (more than 50% control value) | Test E control value (Puccinia recondita; [10]): H (more than 50% control value)

CCC(O)c1ccc(=O)n(CC)c1-c1c(F)cc(F)cc1F (racemic) [compound 469]
Test F control value (Phytophthora infestans; [12]): L (50% or less control value) | Test C control value (Alternaia brassicicola; [12]): H (more than 50% control value) | Test G control value (Plasmopara viticola; [13]): L (50% or less control value) | Test H control value [1, 14]: H (more than 50% control value) | Test D control value [2, 12]: L (50% or less control value) | Test A control value (Magnaporthe grisea; [12]): L (50% or less control value) | Test B control value (Botrytis cinerea; [12]): H (more than 50% control value) | Test E control value (Puccinia recondita; [12]): L (50% or less control value)

C#CCOc1cc(F)c(-c2c(CCC)ccc(=O)n2CC)c(F)c1 [compound 459]
Test F control value (Phytophthora infestans; [12]): L (50% or less control value) | Test C control value (Alternaia brassicicola; [12]): H (more than 50% control value) | Test G control value (Plasmopara viticola; [13]): H (more than 50% control value) | Test H control value [1, 14]: H (more than 50% control value) | Test D control value [2, 12]: H (more than 50% control value) | Test A control value (Magnaporthe grisea; [12]): H (more than 50% control value) | Test B control value (Botrytis cinerea; [12]): H (more than 50% control value) | Test E control value (Puccinia recondita; [12]): H (more than 50% control value)

CCc1cc(Br)c(=O)n(CC)c1-c1ccc(F)cc1Br [compound 343]
Test F control value (Phytophthora infestans; [3]): L (50% or less control value) | Test C control value (Alternaia brassicicola; [4]): H (more than 50% control value) | Test G control value (Plasmopara viticola; [5]): H (more than 50% control value) | Test H control value [1, 6]: H (more than 50% control value) | Test D control value [2, 7]: H (more than 50% control value) | Test A control value (Magnaporthe grisea; [8]): H (more than 50% control value) | Test B control value (Botrytis cinerea; [9]): H (more than 50% control value) | Test E control value (Puccinia recondita; [10]): H (more than 50% control value)

CCCOC(C)(c1cc(Cl)c(=O)n(CC)c1-c1ccc(C#N)cc1)C(C)C (centres unmarked) [compound 252]
Test F control value (Phytophthora infestans; [3]): L (50% or less control value) | Test C control value (Alternaia brassicicola; [4]): L (50% or less control value) | Test G control value (Plasmopara viticola; [5]): L (50% or less control value) | Test H control value [1, 6]: L (50% or less control value) | Test D control value [2, 7]: L (50% or less control value) | Test A control value (Magnaporthe grisea; [8]): H (more than 50% control value) | Test B control value (Botrytis cinerea; [9]): L (50% or less control value) | Test E control value (Puccinia recondita; [10]): L (50% or less control value)

CCc1ccc(=O)n(CC)c1-c1ccc(F)cc1C [compound 347]
Test F control value (Phytophthora infestans; [3]): L (50% or less control value) | Test C control value (Alternaia brassicicola; [4]): H (more than 50% control value) | Test G control value (Plasmopara viticola; [5]): L (50% or less control value) | Test H control value [1, 6]: L (50% or less control value) | Test D control value [2, 7]: L (50% or less control value) | Test A control value (Magnaporthe grisea; [8]): L (50% or less control value) | Test B control value (Botrytis cinerea; [9]): H (more than 50% control value) | Test E control value (Puccinia recondita; [10]): L (50% or less control value)

CCc1ccc(=O)n(C)c1-c1ccc(F)cc1Cl [compound 314]
Test F control value (Phytophthora infestans; [3]): L (50% or less control value) | Test C control value (Alternaia brassicicola; [4]): L (50% or less control value) | Test G control value (Plasmopara viticola; [5]): L (50% or less control value) | Test H control value [1, 6]: L (50% or less control value) | Test D control value [2, 7]: H (more than 50% control value) | Test A control value (Magnaporthe grisea; [8]): L (50% or less control value) | Test B control value (Botrytis cinerea; [9]): L (50% or less control value) | Test E control value (Puccinia recondita; [10]): H (more than 50% control value)

CCOc1cc(F)c(-c2c(C(C)(OC)C(C)C)cc(Cl)c(=O)n2CC)c(F)c1 (centres unmarked) [compound 227]
Test F control value (Phytophthora infestans; [3]): L (50% or less control value) | Test C control value (Alternaia brassicicola; [4]): H (more than 50% control value) | Test G control value (Plasmopara viticola; [5]): H (more than 50% control value) | Test H control value [1, 6]: H (more than 50% control value) | Test D control value [2, 7]: H (more than 50% control value) | Test A control value (Magnaporthe grisea; [8]): H (more than 50% control value) | Test B control value (Botrytis cinerea; [9]): H (more than 50% control value) | Test E control value (Puccinia recondita; [10]): H (more than 50% control value)

CCn1c(-c2c(F)cc(F)cc2F)c(C(C)(OC)C(C)C)cc(Br)c1=O (centres unmarked) [compound 465]
Test F control value (Phytophthora infestans; [12]): L (50% or less control value) | Test C control value (Alternaia brassicicola; [12]): H (more than 50% control value) | Test G control value (Plasmopara viticola; [13]): H (more than 50% control value) | Test H control value [1, 14]: H (more than 50% control value) | Test D control value [2, 12]: H (more than 50% control value) | Test A control value (Magnaporthe grisea; [12]): H (more than 50% control value) | Test B control value (Botrytis cinerea; [12]): H (more than 50% control value) | Test E control value (Puccinia recondita; [12]): H (more than 50% control value)
